Test system: psoriasis
Experiment: Psoriasis, patients 32 and 33
Format: in vivo, human
Settings: patient 32; fluocinonide alone on other elbow
Source text: Patient 32 had suffered from psoriasis on their arms and elbows for over 10 years. A 10-30 Kd peat preparation was applied to one elbow twice daily for approximately nine months, with the occasional simultaneous application of fluocinonide cream. Fluocinonide cream alone was used on the other elbow.
Patient 33 had psoriasis that seemed to only manifest itself after an occurrence of strep throat. Their only successful treatment had been with chemotherapeutic agents.

With `CC(=O)OCC(=O)[C@@]12OC(C)(C)O[C@@H]1C[C@H]1[C@@H]3C[C@H](F)C4=CC(=O)C=C[C@]4(C)[C@@]3(F)[C@@H](O)C[C@@]12C` [fluocinonide] as the molecule, how does the “psoriasis of elbow, skin lesions” value read?
The value was “no decrease in the skin lesions”.

Source: patent US6267962A, “Compositions and methods of treatment using peat derivatives” (C-P Technology Limited Partnership, priority 1997, dated 2001)
